This test has as its system human BMSCs. Description: RT-PCR of stemness, differentiation and hepatic marker genes in human BMSCs. The test is classed as cell-based. As to conditions: human MSCs, GAPDH as normalization, treated 2, 7 and 14 days, combination effect seen during 7 days. As for the experimental part:
The human BMSCs were treated with PBS as control, AuNRs, AuNRs-SP nanocomplex, HGF alone and AuNRs-SP nanocomplex+HGF respectively for 2 days, 7 days and 14 days (Figure 7). Consequently, the expression of stemness gene Oct4, differentiation gene Sox17 and two hepatic marker genes, AFP and ck19 in the human MSCs were analyzed by RT-PCR. Comparing with PBS-treated group and AuNRs-treated group, human MSCs were induced to differentiate by AuNRs-SP nanocomplex with the decreased Oct4 and increased Sox17 (Figure 7A and 7B).
After human BMSCs were treated with PBS, AuNRs, HGF, AuNRs-SP and AuNRs-SP+HGF for 14 days, total RNA was extracted using TRIzol (Invitrogen, Carlsbad, CA, USA) and was quantitated by Nano Drop 2000. 2 μg total RNA was reverse transcribed to cDNA using a reverse transcriptase kit (Takara, Japan) according to the manufacturer's instructions. The mRNA levels of the target genes were quantified by RT-PCR, using GAPDH as normalization. Primers used in this study: Oct4 forward 5′-GACAACAATGAGAACCTTCAG-3′ and reverse 5′-CTGGCGCCGGTTACAGAACCA-3′; Sox17 forward 5′-GAGCCAAGGGCGAGTCCCGTA-3′ and reverse 5′-CCTTCCACGACTTGCCCAGCA-3′; AFP forward 5′-AGCGAGGAGAAATGGTCCGG-3′ and reverse 5′-GGA CAT CTT CAC CAT GTG-3′; Ck19 forward 5′-GCACTACAGCCACTACTACAC-3′ and reverse 5′-CTC ATG CGC AGA GCC TGT-3′.

HGF: hepatocyte growth factor: the “expression of hepatic marker gene AFP (mRNA)” value was “could not change the expression of AFP and ck19 until 14 days”; the “expression of hepatic marker gene ck19 (mRNA)” value was “could not change the expression of AFP and ck19 until 14 days”.

The record behind these values is PMC5410289, “Stable H3 peptide was delivered by gold nanorods to inhibit LSD1 activation and induce human mesenchymal stem cells differentiation” (Oncotarget, 2017).
